According to patent US10946074B2, “GLP-1 derivatives and uses thereof” (Novo Nordisk A/S, priority 2016, dated 2021):
pEC50, pIC50: −log10 of the molar value. Read-outs that look alike come from different tables or passages of the source.

Key:
human GLP-1 receptor [1] = biological target: T1, human GLP-1 receptor (Homo sapiens, UniProt P43220); experiment: GLP-1 receptor binding, competitive binding assay with 125I-GLP-1 on isolated membranes (SPA)
T1 construct: expressed in transfected cells; host or cells: membranes of BHK cells (parent BHKTS13), clone FCW467-12A
Protocol: The receptor binding is reported as the concentration at which half of the labelled ligand is displaced from the receptor, the IC50 value.
Buffer 1 consisted of 20 mM Na-HEPES plus 10 mM EDTA and pH was adjusted to 7.4. Buffer 2 consisted of 20 mM Na-HEPES plus 0.1 mM EDTA and pH was adjusted to 7.4. Assay buffer consisted of 50 mM HEPES supplemented with 5 mM EGTA, 5 mM MgCl2, 0.005% w/v Tween 20 and pH was adjusted to 7.4. An 8% albumin stock consisted of HSA dissolved at 8% (w/v) in assay buffer. An 0.02% albumin stock consisted of HSA dissolved at 0.02% (w/v) in assay buffer.
To make a membrane preparation the cells were grown to approximately 80% confluence. The cells were washed twice in phosphate-buffered saline and harvested. The cells were pelleted using a brief centrifugation and the cell pellet was kept on ice. The cell pellet was homogenised with ULTRA-THURRAX™ dispersing instrument for 20-30 seconds in a suitable amount of buffer 1 (e.g., 10 ml). The homogenate was centrifuged for 15 minutes. The pellet was re-suspended (homogenised) in 10 ml buffer 2 and centrifuged. This step was repeated once more. The resulting pellet was re-suspended in buffer 2 and the protein concentration was determined. The membranes were aliquoted and stored at minus 80° C.
For the receptor binding assay in the presence of low HSA (0.005% (w/v)) 50 μl of the assay buffer was added to each well of an assay plate. Assay continued with step 3.
For the receptor binding assay in the presence of high HSA (2% (w/v)) 50 μl of the 8% (w/v) albumin stock was added to each well of an assay plate. Assay continued with step 3.
Cell membrane aliquots were thawed and diluted to their working concentration. Fifty μl were added to each well in the assay plate.
WGA SPA beads were suspended in assay buffer at 20 mg/ml. The suspension was diluted to 10 mg/ml in assay buffer just prior to addition to the assay plate. Fifty μl were added to each well in the assay plate.
A 25 μl aliquot was reserved for measuring total counts/well.
The assay plate was incubated for 2 h at 30° C.
The assay plate was centrifuged for 10 min.
The assay plate was read in a Packard TopCount NXT instrument.
Individual replicates were analysed using non-linear regression in GraphPad Prism. IC50 values were calculated by the software and reported in nM. A minimum of two replicates was measured for each sample. The reported values are averages of all of the measured values for each compound.

human GLP-1 receptor [2] = biological target: T1, human GLP-1 receptor; experiment: In vitro potency, CRE luciferase reporter gene assay in BHK cells expressing the human GLP-1 receptor; assay type: cell-based; settings: 3 h, 0% HSA, average of at least three replicates
Protocol: When assay incubation is completed the luciferase substrate (luciferin) is added and the enzyme converts luciferin to oxyluciferin to produce bioluminescence. The luminescence is measured as the readout for the assay.
The cells were cultured at 5% CO2 in cell culture medium. They were aliquoted and stored in liquid nitrogen. Before each assay an aliquot was taken up and washed twice in PBS before being suspended at the desired concentration in the assay specific buffer. For 96-well plates the suspension was made to give a final concentration of 5×10^3 cells/well.
Assay medium consisted of DMEM w/o phenol red, 10 mM Hepes and 1× Glutamax. The assay buffer consisted of 2% w/v ovalbumin and 0.2% v/v Pluronic F-68 in assay medium.
3) Cells were counted and adjusted to 5×10^3 cells/50 μl (1×10^5 cells/ml) in assay medium. A 50 μl aliquot of cells was transferred to each well in the assay plate.
4) Stocks of the test compounds and reference compounds were diluted to a concentration of 0.2 μM in assay buffer. […] Compounds were tested at the following final concentrations: 1×10^−7 M, 1×10^−8 M; 1×10^−9 M, 1×10^−10 M, 1×10^−11 M, 1×10^−12 M, 1×10^−13 M, and 1×10^−14 M. 6) The assay plate was incubated for 3 h in a 5% CO2 incubator at 37° C. […] 8) A 100 μl aliquot of steadylite plus reagent was added to each well of the assay plate. 9) Each assay plate was covered with aluminum foil to protect it from light and shaken for 30 min at room temperature. 10) Each assay plate was read in a BioTek Synergy 2 Multi-Mode Reader. Calculations and Results
The data from the BioTek Synergy 2 Multi-Mode Reader were transferred to GraphPad Prism software. The software performs a non-linear regression (log(agonist) vs. response (three parameters)).
A minimum of three replicates were measured for each sample. The reported EC50 values are averages of the measured values for each compound.

[3] = high HSA (2.0% (w/v) final assay concentration), read-out: GLP-1 receptor binding High HSA IC50
[4] = low HSA (max. 0.001% (w/v) final assay concentration), read-out: GLP-1 receptor binding Low HSA IC50

T1 sequence (P43220 24-463): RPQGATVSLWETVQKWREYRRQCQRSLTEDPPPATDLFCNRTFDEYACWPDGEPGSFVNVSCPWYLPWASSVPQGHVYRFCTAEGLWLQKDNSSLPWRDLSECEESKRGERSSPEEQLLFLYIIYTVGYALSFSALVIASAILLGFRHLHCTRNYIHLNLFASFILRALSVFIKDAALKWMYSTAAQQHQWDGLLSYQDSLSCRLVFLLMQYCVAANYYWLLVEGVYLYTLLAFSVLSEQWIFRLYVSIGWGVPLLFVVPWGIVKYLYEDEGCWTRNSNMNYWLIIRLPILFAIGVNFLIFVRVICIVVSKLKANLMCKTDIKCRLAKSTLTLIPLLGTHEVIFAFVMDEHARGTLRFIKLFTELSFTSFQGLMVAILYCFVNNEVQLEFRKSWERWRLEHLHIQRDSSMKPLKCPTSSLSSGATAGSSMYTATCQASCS

| SMILES | pIC50 (human GLP-1 receptor [1]; [3]) | pIC50 (human GLP-1 receptor [1]; [4]) | pEC50 (human GLP-1 receptor [2]) |
| --- | --- | --- | --- |
| CC[C@H](C)[C@H](NC(=O)[C@H](Cc1ccccc1)NC(=O)[C@H](CCC(=O)O)NC(=O)[C@H](CCCNC(=N)N)NC(=O)[C@H](C)NC(=O)[C@H](C)NC(=O)[C@H](CCC(N)=O)NC(=O)[C@H](CCC(=O)O)NC(=O)[C@H](CCC(=O)O)NC(=O)[C@H](CC(C)C)NC(=O)[C@H](Cc1ccc(O)cc1)NC(=O)[C@H](CO)NC(=O)[C@H](CO)NC(=O)[C@@H](NC(=O)[C@H](CC(=O)O)NC(=O)[C@H](CO)NC(=O)[C@@H](NC(=O)[C@H](Cc1ccccc1)NC(=O)[C@@H](NC(=O)CNC(=O)[C@H](CCC(=O)O)NC(=O)C(C)(C)NC(=O)[C@@H](N)Cc1c[nH]cn1)[C@@H](C)O)[C@@H](C)O)C(C)C)C(=O)N[C@@H](C)C(=O)N[C@@H](Cc1c[nH]c2ccccc12)C(=O)N[C@@H](CC(C)C)C(=O)N[C@H](C(=O)N[C@@H](CCCNC(=N)N)C(=O)NCC(=O)N[C@@H](CCCNC(=N)N)C(=O)N[C@@H](CCCCNC(=O)COCCOCCNC(=O)COCCOCCNC(=O)CN(CCCNC(=O)COCCOCCNC(=O)COCCOCCNC(=O)COCCOCCNC(=O)COCCOCCNC(=O)CC[C@H](NC(=O)[C@H]1CC[C@H](CNC(=O)CCCCCCCCCCCCCCCCCCC(=O)O)CC1)C(=O)O)CCCNC(=O)COCCOCCNC(=O)COCCOCCNC(=O)COCCOCCNC(=O)COCCOCCNC(=O)CC[C@H](NC(=O)[C@H]1CC[C@H](CNC(=O)CCCCCCCCCCCCCCCCCCC(=O)O)CC1)C(=O)O)C(=O)O)C(C)C [Comparative 13A] | 7.45 | 9.42 | 10.83 |
| CC[C@H](C)[C@H](NC(=O)[C@H](Cc1ccccc1)NC(=O)[C@H](CCC(=O)O)NC(=O)[C@H](CCCNC(=N)N)NC(=O)[C@H](C)NC(=O)[C@H](C)NC(=O)[C@H](CCC(N)=O)NC(=O)[C@H](CCC(=O)O)NC(=O)[C@H](CCC(=O)O)NC(=O)[C@H](CC(C)C)NC(=O)[C@H](Cc1ccc(O)cc1)NC(=O)[C@H](CO)NC(=O)[C@H](CO)NC(=O)[C@@H](NC(=O)[C@H](CC(=O)O)NC(=O)[C@H](CO)NC(=O)[C@@H](NC(=O)[C@H](Cc1ccccc1)NC(=O)[C@@H](NC(=O)CNC(=O)[C@H](CCC(=O)O)NC(=O)C(C)(C)NC(=O)[C@@H](N)Cc1c[nH]cn1)[C@@H](C)O)[C@@H](C)O)C(C)C)C(=O)N[C@@H](C)C(=O)N[C@@H](Cc1c[nH]c2ccccc12)C(=O)N[C@@H](CC(C)C)C(=O)N[C@H](C(=O)N[C@@H](CCCNC(=N)N)C(=O)NCC(=O)N[C@@H](CCCNC(=N)N)C(=O)N[C@@H](CCCCNC(=O)COCCOCCNC(=O)COCCOCCNC(=O)[C@H](CCCCNC(=O)COCCOCCNC(=O)COCCOCCNC(=O)COCCOCCNC(=O)COCCOCCNC(=O)CC[C@H](NC(=O)[C@H]1CC[C@H](CNC(=O)CCCCCCCCCCCCCCCCCCC(=O)O)CC1)C(=O)O)NC(=O)COCCOCCNC(=O)COCCOCCNC(=O)COCCOCCNC(=O)COCCOCCNC(=O)CC[C@H](NC(=O)[C@H]1CC[C@H](CNC(=O)CCCCCCCCCCCCCCCCCCC(=O)O)CC1)C(=O)O)C(=O)O)C(C)C [Comparative 12A] | 7.37 | 9.27 | 10.86 |
